Test results reported in PubChem BioAssay (NCI).
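In this assay, cells in 96-well plates receive the compound at five concentrations for 48 hours. Endpoints are linearly interpolated between the surrounding concentrations. TGI marks complete inhibition of growth.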

Experiments:
Experiment in all cases: NCI-60 cell line screen, 48 h
[1] = tested on: SK-OV-3 ovarian
[2] = tested on: LOX IMVI melanoma
[3] = tested on: NCI/ADR-RES ovarian
[4] = tested on: NCI-H23 lung
[5] = tested on: NCI-H460 lung
[6] = tested on: K-562 leukemia
[7] = tested on: MOLT-4 leukemia
[8] = tested on: MCF7 breast
[9] = tested on: SK-MEL-5 melanoma

| SMILES | TGI [1] [µM] | TGI [2] [µM] | TGI [3] [µM] | TGI [4] [µM] | TGI [5] [µM] | TGI [6] [µM] | TGI [7] [µM] | TGI [8] [µM] | TGI [9] [µM] |
| --- | --- | --- | --- | --- | --- | --- | --- | --- | --- |
| CCCCCCc1cc2cc(-c3cn4ccsc4n3)c(=O)oc2cc1O | > 100 | > 100 | > 100 | > 100 | > 100 | > 100 | > 100 | > 100 | > 44.9 |
| CC(N)/C(N)=N/O (centres undefined) | > 100 | > 100 | > 100 | > 100 | > 100 | > 100 |  | > 100 | > 100 |
| CC(C)(CN1CCCCC1)C(/C=C/c1ccc(Cl)cc1)=N\NC(=O)N/N=C(/C=C/c1ccc(Cl)cc1)C(C)(C)CN1CCCCC1 | 25.4 | 5.97 | 29.4 | 10.3 | 10.2 | > 100 | 9.97 | > 35.3 | 11.2 |
| NC(Cc1ccccc1)C(=O)NC(Cc1ccccc1)NC(=O)C(Cc1c[nH]c2ccccc12)C(=O)O (centres undefined) | > 100 | > 100 | > 100 | > 100 | > 100 |  |  | > 100 | > 100 |
| O=C1c2ccccc2-n2nnnc2C2CSCN12 (centres undefined) | > 100 | > 100 | > 100 |  | > 100 | > 100 | > 100 | > 100 | > 100 |
| COc1ccc(C(C)NNC(=O)c2ccncc2)cc1OC (centres undefined) | > 100 | > 100 | > 100 | > 100 | > 100 | > 100 | > 100 | > 100 | > 100 |
| O=c1c(F)cn(Cc2c(Cl)cccc2Cl)c(=O)n1Cc1c(Cl)cccc1Cl | > 31.6 | > 31.6 | > 31.6 | > 31.6 | > 31.6 | > 31.6 | > 31.6 | > 31.6 | > 31.6 |
| CC(C)C(NC(=O)Oc1ccccc1)C(=O)NC1c2c(Br)sc(Br)c2C(=O)C1O (centres undefined) | > 25 | 8.91 | 16.5 | 8.41 | 8.64 | 17.4 | > 25 | > 25 | 8.36 |
| COC(=O)c1ccc(Cc2cc(Cc3ccc(C(=O)OC)cc3)cc(Cc3ccc(C(=O)OC)cc3)c2)cc1 | > 25 | > 25 | > 25 |  | > 25 | > 25 | > 25 | > 25 |  |
| N=c1oc2ccccc2cc1C(=O)NC12CC3CC(CC(C3)C1)C2 | 53.5 | > 59.8 | > 100 | > 91.6 | 31.4 | 72.1 | 10.2 | 18.3 | 69.9 |
| N#C/C(N)=C(\C#N)NC=NCCO | > 100 | > 100 | > 100 | > 100 | > 100 | > 100 | > 100 | > 100 | > 100 |
| Cc1ccc(Nc2nc(NNC(=O)Cc3ccccc3)nc(NNC(=O)c3ccncc3)n2)cc1 | > 10 | > 10 | > 10 | > 10 | > 10 | > 10 | > 10 | > 10 | > 10 |
| COc1ccc(C(SCCO)(c2ccccc2)c2ccc(OC)cc2)cc1 | 35.4 | 33.8 | 34.7 | 38.1 | 17.2 | > 72.9 | 50.2 | 18.5 | 21.1 |
| Nc1ncc2c(n1)-c1ccccc1OC2N1CCCCC1 (centres undefined) | > 100 | > 100 | > 100 | > 100 | > 100 |  | > 100 | > 100 | > 100 |
| C=C1C(=O)O[C@@H]2/C=C(C)/C=C\[C@@H]3O[C@@]3(C)C[C@@H](O)C12 (some centres undefined) | > 100 | 22.2 | 33.4 | 33.3 | 73.3 | 20.6 | 30.1 | 26.4 | 29 |
| O=C1c2cccc3cc([N+](=O)[O-])cc(c23)C(=O)N1Nc1ccc([N+](=O)[O-])cc1[N+](=O)[O-] | > 31.6 | 19.4 | > 31.6 | 35.7 | 36.2 | > 31.6 | 11.8 | > 31.6 | 21.1 |
| O=C1c2sc(-c3ccc(Cl)cc3)cc2-n2cccc21 | > 100 | > 100 | > 100 |  | > 100 | > 100 | > 100 | > 100 | > 100 |
| COC(=O)CC(C)(NS(=O)c1ccc(C)cc1)c1ccccc1 (centres undefined) | > 100 | > 100 | > 100 | > 100 | > 100 | > 100 | > 100 | > 100 | > 100 |
| COc1cc2c(/C=C3/C(=O)Nc4cccc(Cl)c43)c(Cl)[nH]c2cc1C | 5.67 | 3.68 | 3.45 | 9.36 | 3.78 | 3.64 | 1.26 | 8.35 | 14.3 |
| O=C(O)Cc1ccc([N+](=O)[O-])cc1[N+](=O)[O-] | > 100 | > 100 | > 100 | > 100 | > 100 | > 100 | > 100 | > 100 | > 100 |
| O=c1[nH]c(=O)n(C2COC(CO)C2O)cc1F (centres undefined) | > 100 | > 100 | > 100 | > 100 | > 100 | > 100 | > 100 | > 100 | > 100 |
| O=C1NC2(CCN(CCc3ccccc3)CC2)Oc2ccccc21 | > 100 | > 100 | > 100 | > 100 | > 100 | > 100 | > 100 | > 100 | 27.8 |
| CC(=O)CC1CCC(=O)/C=C/C(=O)OC(CC(C)=O)CCC(=O)/C=C/C(=O)O1 (centres undefined) | 36.1 | 35.1 | 53.2 | 36.4 | 36.3 | > 20.9 | > 100 | 27.6 | 27.3 |
